Laboratory results from patent US20260297164A1, “ANTI-FIBROTIC PEPTIDES AND USES THEREOF” (Deackt, Inc., priority 2021, published 2026).

B1: FasL: Soluble recombinant human FasL (protein, UniProt P48023 103-281, looked up)
extracellular domain: QLFHLQKELAELRESTSQMHTASSLEKQIGHPSPPPEKKELRKVAHLTGKSNSRSMPLEWEDTYGIVLLSGVKYKKGGLVINETGLYFVYSKVYFRGQSCNNLPLSHKVYMRNSKYPQDLVMMEGKMMSYCTTGQMWARSSYLGAVFNLTSADHLYVNVSELSLVNFEESQTFFGLYKL
modifications: extracellular domain soluble recombinant

Experiments:
[1] = test system: α-SMA in CD148-deficient (Ptprj−/−) lung fibroblasts; experiment: α-SMA western blot in CD148-deficient lung fibroblasts with PI3K/mTOR inhibitors; format: cell-based, mouse; conditions: CD148-deficient cells, TGF-β1 10 ng/ml; wortmannin 50 nM or rapamycin 1 μM, 24 h
Experimental: FIG. 3. CD148 deficiency enhances PI3K/Akt/mTOR signaling which results in low autophagy, high p62 expression in lung fibroblasts. (A) Mouse lung fibroblasts were isolated from Ptprj^fl/fl Col1a2^Cre-ER(T)+/0 mice (Ptprj−/−) and Col1a2^Cre-ER(T)+/0 mice (WT) and then treated with 4-OHT (1 μM) for 24 h. After 4-OHT treatment, cells were exposed to TGF-β1 (10 ng/ml) for 24 h. After stimulation, cells were harvested, and the expression of p-p85 (Tyr458), p-Akt (Ser473), pmTOR (Ser2448), p-p70 S6 kinase (Thr389), p-S6 ribosomal protein (Ser235/236) and CD148 (n=4 for each condition) in lysates was determined by Western immunoblotting and corresponding densitometry (ImageJ software). Data were normalized to corresponding dephospho-forms or GAPDH. (B) WT and Ptprj−/− cells were stimulated with TGF-β1 (10 ng/ml) for 24 h. Then cells were lysed and LC3-I and -II and p62 were measured by western blot (n=4). […] Then, autophagy flux was measured by LC3-II accumulation in the absence or presence of lysosomal acidification inhibitor chloroquine (25 μM) at 2, 4 and 6 h (n=4). […] LC3 puncta positive cells were quantified using ImageJ (D). […]
Polyacrylamide gel electrophoresis and immunoblotting were performed according to standard methods. […] The signals were detected by ECL (Thermo Fisher Scientific, Waltham, MA). […]

[2] = test system: Col1a1 expression in CD148-deficient (Ptprj−/−) lung fibroblasts; experiment: Col1a1 qPCR in CD148-deficient lung fibroblasts with NF-κB inhibitor; format: cell-based, mouse; conditions: CD148-deficient cells, TGF-β1 10 ng/ml; Bay 11-7082 10 μM
Experimental: FIG. 4. CD148 deficiency enhances PI3K/Akt/mTOR signaling which results in enhanced NF-κB activation in lung fibroblasts. (A) WT and Ptprj−/− cells were stimulated with TGF-β1 (10 ng/ml) for 24 h. Cells were lysed and p-IKKα/β, p-IκB and IκB were measured by western blot (n=4). GAPDH was the standard. Bar graphs at right are the quantitation of corresponding proteins. (B) WT and Ptprj−/− cells were stimulated with TGF-β1 (10 ng/ml) for 24 h. Cells were subjected to cytosol and nuclear protein fractionation. The p65 (NF-κB subunit) nuclear translocation was measured by western blot (n=3). β-actin and PCNA were used as cytosolic and nuclear markers, respectively. Bar graphs at right are the quantitation of corresponding proteins. p65 cytosolic/nuclear ratio is shown (far right). Data are mean±s.e.m. *P<0.05, by Kurskal-Wallis non-parametric test (C-D) WT or Ptprj−/− cells were transfected with scr or shp62 (lentivirus). Cells were stimulated with TGF-β1 (10 ng/ml) in the presence or absence or wortmannin (wort, 50 nM) or rapamycin (rapa, 1 μM). At 24 h cells were harvested and subjected to qPCR for Col1a1 or Acta2 (n=5). […] Luciferase activity were measured as described in methods (n=4 or 7). […] (F) WT or Ptprj−/− cells were stimulated with TGF-β1 (10 ng/ml) in the presence or absence of the NF-κB inhibitor Bay 11-7082 (10 μM). mRNA levels of Col1a1 were measured by qPCR (n=5 for each condition). […]

[3] = test system: IPF-derived lung fibroblasts; experiment: FasL-induced cell death (MTT cell viability); format: cell-based, human; conditions: FasL 100 and 200 ng/ml, 24 h
Experimental: FIG. 1. […] (A) CD148 protein expression levels were determined in lung homogenates from control (n=5) and IPF (n=5) patients. (Graphic) Densitometry (by ImageJ software). (B) Lung specimens from control (n=9) and IPF (n=10) patients were homogenized and subjected to total RNA isolation. Ptprj (CD148) mRNA levels were assessed using qPCR. (C) Single cell suspensions of control (n=6) and IPF (n=7) were enriched for fibroblasts. mRNA expression of CD148 in fibroblast-enriched cell populations were assessed using qPCR. (D) Representative fluorescence microscopy images of CD148 (Cy3, red), Vimentin (GFP, green) and DAPI (blue) in control (n=4) and IPF lung tissue (n=5). Scale bar=100 μm. […] CD148 fluorescence intensity was quantified by ImageJ. […] (E) CD148 protein levels were measured by western blot (n=3). (F) mRNA levels of fibronectin (Fn) and Collagen 1a1 (Col1a1) were measured using qPCR (n=5). […] After treatment, cell viability was determined using the MTT assay (n=5). […] Clusters labeled as fibroblast and myofibroblast were extracted from our previously published scRNA-seq data set and analysed using R-program. […] P values were calculated by Mann-Whitney unpaired test. (L) mRNA expression of CD148 in sorted AT1 and AT2 cells were assessed using qPCR. […] After treatment, cell viability was assessed with the MTT assay (n=4). […]
FIG. 6. […] (B) mRNA levels of Fn and Col1a1 were measured by qPCR (n=5). […]

Row | Molecule | increase of a-SMA in response to TGF-β1 [1] | further results
1 | COC[C@H]1OC(=O)c2coc3c2[C@@]1(C)C1=C(C3=O)[C@@H]2CCC(=O)[C@@]2(C)C[C@H]1OC(C)=O [wortmannin] | attenuated | 
2 | CO[C@H]1C[C@@H]2CC[C@@H](C)[C@@](O)(O2)C(=O)C(=O)N2CCCC[C@H]2C(=O)O[C@H]([C@H](C)C[C@@H]2CC[C@@H](O)[C@H](OC)C2)CC(=O)[C@H](C)/C=C(\C)[C@@H](O)[C@@H](OC)C(=O)[C@H](C)C[C@H](C)/C=C/C=C/C=C/1C [rapamycin] | attenuated | 
3 | Cc1ccc(S(=O)(=O)/C=C/C#N)cc1 [Bay 11-7082] |  | TGF-β1-dependent increase in Col1a1 expression [2]: inhibited
4 | B1 |  | cell death induced by Fas ligand [3]: resistant to cell death
